Results: the NIST ThermoML archive (doi:10.1016/j.tca.2018.04.014)
Numbers after ± are expanded uncertainties.

Columns and labels:
[1] = DSC
[2] = Molar enthalpy of transition or fusion; conditions: DSC

CC1(C)[C@H]2CC[C@]1(C)C(=O)C2 [(1S)-1,7,7-trimethylbicyclo[2.2.1]heptan-2-one]
Triple point temperature ([1]; Crystal 1): 453.9 ± 3.1 K
Triple point temperature ([1]; Crystal 2): 375.3 ± 3.1 K
Triple point temperature ([1]; Crystal 3): 246.3 ± 3.1 K
Molar enthalpy of transition or fusion ([2]; Crystal 2): 0.0382 ± 0.17 kcal/mol
Molar enthalpy of transition or fusion ([2]; Crystal 3): 3.17 ± 0.184 kcal/mol

CC1(C)[C@H]2CC[C@]1(C)[C@H](O)C2 [(1S-endo)-1,7,7-trimethylbicyclo[2.2.1]heptan-2-ol]
Triple point temperature ([1]; Crystal 1): 479.7 ± 3.1 K
Triple point temperature ([1]; Crystal 2): 347.4 ± 3.1 K
Triple point temperature ([1]; Crystal 3): 212.3 ± 3.1 K
Molar enthalpy of transition or fusion ([2]; Crystal 2): 0.715 ± 0.174 kcal/mol
Molar enthalpy of transition or fusion ([2]; Crystal 3): 0.172 ± 0.172 kcal/mol

CC1(C)[C@@H]2CC[C@@]1(C)[C@@H](O)C2 [d-borneol]
Triple point temperature ([1]; Crystal 1): 481.6 ± 3.1 K
Triple point temperature ([1]; Crystal 2): 346.7 ± 3.1 K
Triple point temperature ([1]; Crystal 3): 213.5 ± 3.1 K
Molar enthalpy of transition or fusion ([2]; Crystal 2): 0.724 ± 0.174 kcal/mol
Molar enthalpy of transition or fusion ([2]; Crystal 3): 0.179 ± 0.172 kcal/mol

CC1(C)[C@@H]2CC[C@@]1(C)C(=O)C2 [d-camphor]
Triple point temperature ([1]; Crystal 1): 452.7 ± 3.1 K
Triple point temperature ([1]; Crystal 2): 372.3 ± 3.1 K
Triple point temperature ([1]; Crystal 3): 242.8 ± 3.1 K
Molar enthalpy of transition or fusion ([2]; Crystal 2): 0.0359 ± 0.17 kcal/mol
Molar enthalpy of transition or fusion ([2]; Crystal 3): 2.68 ± 0.182 kcal/mol
